Experiments:
C57BL/6J mice = test: Rotarod motor coordination in 23 month old C57BL/6J mice; format: in vivo, mouse
Procedure: A group of 34 C57BL/6J mice were tested for motor coordination in a rotarod at 23 months of age. Mice were tested for 4 consecutive days. Each session consisted of 4 runs in which the speed of the rotating rod increased from 4 to 40 rpm over 5 minutes. Mice were allowed to run until they fell. The latency to fall was recorded for each run, and averaged to obtain a single value for each session. Half of the mice were then treated with 50 mg/kg nutlin-3a for 14 consecutive days, via IP injection, while the rest of them were sham injected. 3 weeks after the last day of treatment, motor coordination was assessed following the described procedure.
Values higher than 1 correspond to an increase in motor coordination after treatment. The average of 4 runs for each animal and the average (±SEM) for each group are shown.
The average of 4 runs is shown for each day (±SEM).

[1] = tested on: senescent foreskin fibroblasts (HCA2 and BJ), lung fibroblasts (IMR90); test: Cell count survival assay of Nutlin-3a on irradiation-induced senescent fibroblasts; format: cell-based, human; settings: 10 Gy irradiated HCA2, BJ, Nutlin-3a 0, 2.5, 10 μM for 9 days
Procedure: (§1) Foreskin fibroblast cell lines HCA2 and BJ, lung fibroblast cell line IMR90, and mouse embryonic fibroblasts were seeded in six-well plates and induced to senesce with 10 Gy of ionizing radiation (IR) or a 24 hr treatment with doxorubicin (Doxo). Senescent phenotype was allowed to develop for at least 7 days, at which point a cell count was made to determine the baseline number of cells. Nutlin-3a treatment was then initiated for a period of at least 9 days. Media alone or media with drug as appropriate was refreshed at least every three days. At the end of the assay time period, cells are counted. Each condition was seeded in three plate wells and counted independently. Initial cell count serves as a control to determine the induction of senescence, as compared to the last day count without nutlin treatment. Initial non-senescent cell count serves as a proxy to determine Nutlin-3a toxicity.
(§2) Foreskin fibroblast cell lines HCA2 and BJ, lung fibroblast cell line IMR90, and mouse embryonic fibroblasts were exposed to 10 Gy of ionizing radiation (IR) to induce senescence. […] Percent survival was calculated as [cell count on day 9 of Nutlin-3a treatment/initial cell count on first day of Nutlin-3a treatment].

[2] = tested on: senescent mouse embryonic fibroblasts (MEF); test: Cell count survival assay of Nutlin-3a on irradiation-induced senescent MEFs; format: cell-based; settings: 10 Gy irradiated MEF; Nutlin-3a 0, 2.5, 10 μM for 9 days
Procedure: as §1, §2

[3] = tested on: non-senescent foreskin fibroblasts (HCA2), lung fibroblasts (IMR90), mouse embryonic fibroblasts (MEF); test: Nutlin-3a toxicity, cell counts of non-senescent fibroblasts; format: cell-based, human; mouse; settings: 0, 2.5, 10 μM, 9 days
Procedure: Non-senescent foreskin fibroblasts (HCA2), lung fibroblasts (IMR90), and mouse embryonic fibroblasts (MEF) were treated with varying concentrations (0, 2.5 μM, and 10 μM) of Nutlin-3a for a period of 9 days to assess Nutlin-3a toxicity. Cell counts were taken at the start (NS start) and end of Nutlin-3a treatment. The difference between counts of cells not treated with Nutlin-3a on day 9 (NS 0) and cell counts determined at day zero (NS start) reflects the cell growth over the indicated time period. […] Decrease in apparent survival between NS 0 and NS 2.5 and between NS 0 and NS 10 reflects a decrease in cell growth. Without wishing to be bound by theory, Nutlin-3a may stabilize p53, leading to cell cycle growth arrest.

[4] = tested on: 3MR mice with bleomycin induced lung injury; test: Bleomycin induced lung injury model; format: in vivo, mouse; settings: for lung compliance (static and dynamic) / lung elastance: 21 days post-bleomycin, Nutlin-3A data not statistically significant
Procedure: One animal model study assessed the effect of clearance of senescence cells in the transgenic mouse strain 3MR that has bleomycin induced lung injury. […] Control mice were administered saline. The day following bleomycin treatment, ganciclovir (GCV) (25 mg/kg in PBS) was administered. 3MR mice were treated via intraperitoneal injection with ganciclovir for 5 consecutive days, followed by 5 days of rest, followed by a second treatment cycle of 5 consecutive days. Untreated mice received an equal volume of vehicle. At 7, 14, and 21 days post-bleomycin treatment, lung function was assessed by monitoring oxygen saturation using the MouseSTAT PhysioSuite pulse oximeter (Kent Scientific). Animals were anesthetized with isoflurane (1.5%) and a toe clip was applied. Mice were monitored for 30 seconds and the average peripheral capillary oxygen saturation (SpO2) measurement over this duration was calculated. […] At 21 days post-bleomycin treatment, airway hyper-reactivity (AHR) of mice was examined. AHR of mice was measured by methacholine challenge while other parameters of lung function (airway mechanics, lung volume and lung compliance) were determined using a SCIREQ flexiVent ventilator. While under ketamine/xylazine anesthesia and subjected to cannulation of the trachea via a tracheostomy (19Fr blunt Luer cannula), airway resistance (elastance) and compliance of mice were assessed at baseline and in response to increasing concentrations of methacholine (0 to 50 mg/ml in PBS) delivered via nebulization (AeroNeb) as described in Aravamudan et al. (Am. J. Physiol. Lung Cell. Mol. Physiol. (2012) 303:L669-L6810). Animals were maintained at 37° C., and while under muscle paralysis (pancuronium); airway function was measured by using the FlexiVent ventilator and lung mechanics system (SCIREQ, Montreal, Quebec, Canada), which was housed on Stabile 8. […] As shown in FIGS. 60B-C, bleomycin administration reduced static compliance and (dynamic) compliance in vehicle treated mice. […] Mice were euthanized by i.p injection of pentobarbital. Bronchoalveolar lavage (BAL) fluids and lungs is obtained and analyzed. Hydroxyproline content of lungs is measured as described in Christensen et al. (1999, Am. J. Pathol. 155:1773-1779), and quantitative histopathology is performed. RNA is extracted from lung tissue to measure senescence cell markers by qRT-PCR in treated and control mice.

[5] = tested on: p16-3MR mice fed a high fat diet; test: Glucose tolerance, insulin tolerance and body parameters in high fat fed p16-3MR mice; format: in vivo, mouse
Procedure: Groups of p16-3MR mice (n=9) were fed a high fat diet for four months mice or a regular chow diet. Animals were then treated with ganciclovir (3 rounds of 25 mg/kg ganciclovir administered daily for five consecutive days) or vehicle. A glucose bolus was given at time zero, and blood glucose was monitored at 20, 30, 60, and 120 minutes after delivering glucose to determine glucose disposal (see FIG. 69A). […] Insulin sensitivity was also determined (Insulin Tolerance Testing (ITT)). […] Changes in weight, body composition, and food intake were also monitored.

## COc1ccc(C2=N[C@@H](c3ccc(Cl)cc3)[C@@H](c3ccc(Cl)cc3)N2C(=O)N2CCNC(=O)C2)c(OC(C)C)c1 [Nutlin-3a]
C57BL/6J mice; 50 mg/kg IP 14 days, after three days of training, p<0.05
  rotarod performance (latency to fall): increased rotarod performance
C57BL/6J mice; p<0.01
  ratio of latency to fall, fourth session after treatment / fourth baseline session: higher average ratio
C57BL/6J mice; p<0.01, 2-way ANOVA
  rotarod performance over the training period: better performance
[1]
  cell survival of senescent fibroblasts (percent survival): reduced cell survival
[2]
  cell survival of senescent MEF (percent survival): reduced cell survival
[3]
  toxicity to non-senescent fibroblasts (percent growth): reduces proliferation but is non-toxic
[4]
  lung compliance (static and dynamic): increased lung compliance
  lung elastance: reduced lung elastance

## Nc1nc(O)c2ncn(COC(CO)CO)c2n1 [ganciclovir]
[5]; 0, 14, 30, 60 and 120 minutes
  insulin tolerance testing: decrease in blood glucose: greater decrease in blood glucose
[5]; 3 rounds of 25 mg/kg daily for five days
  glucose tolerance test AUC versus vehicle: significantly lower
[5]; high fat diet
  Hemoglobin A1c: lower
[5]; mouse, in vivo
  body weight, body composition (percent of fat), food intake: did not alter
[4]
  lung compliance (static and dynamic): improved compliance values significantly
  lung elastance: reduced lung elastance
[4]; approached normal levels at 21 days post bleomycin
  peripheral capillary oxygen saturation (SpO2): higher SpO2 levels
